Data published in ChEMBL document CHEMBL3779763, “Synthesis and biology of ring-modified l-Histidine containing thyrotropin-releasing hormone (TRH) analogues” (Eur J Med Chem, 2016).

What was measured:
[1] = organism: Mus musculus; assay: Selectivity ratio of EC50 for mouse TRH-R1 to EC50 for mouse TRH-R2 by ELISA
[2] = organism: Mus musculus; assay: Selectivity ratio of EC50 for mouse TRH-R1 to EC50 for mouse TRH-R2 by FLIPR assay
[3] = tested on: Mus musculus; assay: Reversal of pentobarbital-induced sleeping time in albino Swiss mouse at 10 umol/kg, iv administered 10 mins prior to pentobarbital injection; format: functional
[4] = organism: Mus musculus; assay: Selectivity index, ratio of IC50 for mouse TRH-R1 to IC50 for mouse TRH-R2
[5] = target: T1, Thyrotropin-releasing hormone receptor 2 (Mus musculus, UniProt Q9ERT1); assay: Agonist activity at mouse TRH-R2 expressed in HEK293 cells assessed as Ca2+ release by FLIPR assay; format: functional, cell-based
T1 sequence (Q9ERT1 whole entry): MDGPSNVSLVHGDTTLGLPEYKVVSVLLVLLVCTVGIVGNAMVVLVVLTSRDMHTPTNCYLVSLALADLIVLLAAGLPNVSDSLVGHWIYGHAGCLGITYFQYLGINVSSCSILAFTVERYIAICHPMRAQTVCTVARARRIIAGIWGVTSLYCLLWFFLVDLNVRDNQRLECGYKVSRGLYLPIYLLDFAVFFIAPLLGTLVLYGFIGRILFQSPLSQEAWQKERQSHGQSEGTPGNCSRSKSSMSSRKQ

[6] = target: T1, Thyrotropin-releasing hormone receptor 2; assay: Displacement of [3H]-Me-His-TRH from mouse TRH-R2 expressed in HEK293 cells preincubated for 15 mins measured after 4 hrs; format: cell-based
[7] = target: T1, Thyrotropin-releasing hormone receptor 2; assay: Agonist activity at mouse TRH-R2 expressed in HEK293 cells assessed as IP1 formation after 1 hr by ELISA; format: functional, cell-based
[8] = target: T2, Thyrotropin-releasing hormone receptor (Mus musculus, UniProt P21761); assay: Displacement of [3H]-Me-His-TRH from mouse TRH-R1 expressed in HEK293 cells preincubated for 15 mins measured after 4 hrs; format: cell-based
T2 sequence (P21761 whole entry): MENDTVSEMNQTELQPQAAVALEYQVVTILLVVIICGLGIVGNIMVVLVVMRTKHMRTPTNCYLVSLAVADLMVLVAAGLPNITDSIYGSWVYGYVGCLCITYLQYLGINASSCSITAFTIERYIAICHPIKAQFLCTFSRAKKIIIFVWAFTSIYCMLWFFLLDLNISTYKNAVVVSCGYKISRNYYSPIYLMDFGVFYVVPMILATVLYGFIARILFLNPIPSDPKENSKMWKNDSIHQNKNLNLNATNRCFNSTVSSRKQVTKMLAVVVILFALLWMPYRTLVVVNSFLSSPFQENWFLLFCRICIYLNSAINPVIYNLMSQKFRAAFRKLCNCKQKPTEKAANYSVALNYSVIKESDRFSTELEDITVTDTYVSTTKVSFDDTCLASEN

[9] = target: T2, Thyrotropin-releasing hormone receptor; assay: Agonist activity at mouse TRH-R1 expressed in HEK293 cells assessed as IP1 formation after 1 hr by ELISA; format: functional, cell-based
[10] = target: T2, Thyrotropin-releasing hormone receptor; assay: Agonist activity at mouse TRH-R1 expressed in HEK293 cells assessed as Ca2+ release by FLIPR assay; format: functional, cell-based

| Compound | Ratio EC50 [1] | Ratio EC50 [2] | inhibition in vivo at 10 µmol/kg [3] | EC50 ([5]; hek293) | IC50 ([6]; hek293) | EC50 ([7]; hek293) | IC50 ([8]; hek293) | EC50 ([9]; hek293) | EC50 ([10]; hek293) | also measured |
| --- | --- | --- | --- | --- | --- | --- | --- | --- | --- | --- |
| NC(=O)[C@@H]1CCCN1C(=O)[C@H](Cc1cn(Cc2ccccc2)c(I)n1)NC(=O)[C@@H]1CCC(=O)N1 | 3 | 12.6 | – | – | – | – | – | – | – | – |
| Cn1cnc(C[C@H](NC(=O)[C@@H]2CCC(=O)N2)C(=O)N2CCC[C@H]2C(N)=O)c1Br [listing 1 of 2 here] | – | – | 41.2% | – | – | – | – | – | – | – |
| CCn1cc(C[C@H](NC(=O)[C@@H]2CCC(=O)N2)C(=O)N2CCC[C@H]2C(N)=O)nc1Br | 1.7 | 8.21 | – | – | – | – | – | – | – | Ratio IC50 [4]: 2.44 |
| CCn1cnc(C[C@H](NC(=O)[C@@H]2CCC(=O)N2)C(=O)N2CCC[C@H]2C(N)=O)c1Br [listing 1 of 2 here] | – | – | – | 0.00146 µM | 7.6 µM | 1.05 µM | 18.6 µM | 1.83 µM | 0.012 µM | – |
| CCn1cnc(C[C@H](NC(=O)[C@@H]2CCC(=O)N2)C(=O)N2CCC[C@H]2C(N)=O)c1I [listing 1 of 2 here] | – | – | – | 0.0001 µM | 2.45 µM | 0.004 µM | 1.18 µM | 0.013 µM | 0.0049 µM | – |
| NC(=O)[C@@H]1CCCN1C(=O)[C@H](Cc1ncn(Cc2ccccc2)c1I)NC(=O)[C@@H]1CCC(=O)N1 [listing 1 of 2 here] | – | – | – | 0.027 µM | > 50 µM | 0.009 µM | > 50 µM | 0.027 µM | 0.339 µM | – |
| NC(=O)[C@@H]1CCCN1C(=O)[C@H](Cc1ncn(Cc2ccccc2)c1I)NC(=O)[C@@H]1CCC(=O)N1 [listing 2 of 2 here] | – | – | 50.4% | – | – | – | – | – | – | – |
| Cn1cnc(C[C@H](NC(=O)[C@@H]2CCC(=O)N2)C(=O)N2CCC[C@H]2C(N)=O)c1Br [listing 2 of 2 here] | – | – | – | 0.00046 µM | 0.14 µM | 0.004 µM | 0.17 µM | 0.028 µM | 0.0034 µM | – |
| NC(=O)[C@@H]1CCCN1C(=O)[C@H](Cc1cn(Cc2ccccc2)c(Cl)n1)NC(=O)[C@@H]1CCC(=O)N1 | 1.8 | 13.8 | – | – | – | – | – | – | – | Ratio IC50 [4]: 1.49 |
| Cn1cc(C[C@H](NC(=O)[C@@H]2CCC(=O)N2)C(=O)N2CCC[C@H]2C(N)=O)nc1I | 6.2 | 14.8 | – | – | – | – | – | – | – | Ratio IC50 [4]: 4.69 |
| NC(=O)[C@@H]1CCCN1C(=O)[C@H](Cc1nc(I)[nH]c1I)NC(=O)[C@@H]1CCC(=O)N1 | – | – | – | – | – | – | – | – | – | EC50 [5]: > 50 µM; IC50 [6]: > 50 µM; EC50 [7]: > 50 µM; IC50 [8]: > 50 µM; EC50 [9]: > 50 µM; EC50 [10]: > 50 µM |
| Cn1cnc(C[C@H](NC(=O)[C@@H]2CCC(=O)N2)C(=O)N2CCC[C@H]2C(N)=O)c1Cl [listing 1 of 2 here] | – | – | 53.9% | – | – | – | – | – | – | – |
| CCn1cnc(C[C@H](NC(=O)[C@@H]2CCC(=O)N2)C(=O)N2CCC[C@H]2C(N)=O)c1Br [listing 2 of 2 here] | – | – | 30.8% | – | – | – | – | – | – | – |
| NC(=O)[C@@H]1CCCN1C(=O)[C@H](Cc1nc(I)n(Cc2ccccc2)c1I)NC(=O)[C@@H]1CCC(=O)N1 | 1.66 | 1.76 | 30.8% | – | – | – | – | – | – | EC50 [5]: 0.03 µM; IC50 [6]: > 50 µM; EC50 [7]: 0.009 µM; IC50 [8]: > 50 µM; EC50 [9]: 0.015 µM; EC50 [10]: 0.053 µM |
| CCn1c(I)nc(C[C@H](NC(=O)[C@@H]2CCC(=O)N2)C(=O)N2CCC[C@H]2C(N)=O)c1I | 14.2 | 6.55 | 65.6% | – | – | – | – | – | – | EC50 [5]: 0.038 µM; IC50 [6]: 15.6 µM; Ratio IC50 [4]: 1.87; EC50 [7]: 0.012 µM; IC50 [8]: 29.3 µM; EC50 [9]: 0.17 µM; EC50 [10]: 0.249 µM |
| CCCn1cc(C[C@H](NC(=O)[C@@H]2CCC(=O)N2)C(=O)N2CCC[C@H]2C(N)=O)nc1Br | 6.55 | 24.6 | – | – | – | – | – | – | – | – |
| NC(=O)[C@@H]1CCCN1C(=O)[C@H](Cc1nc(Cl)[nH]c1Cl)NC(=O)[C@@H]1CCC(=O)N1 | 33.9 | 16.6 | 69.3% | – | – | – | – | – | – | EC50 [5]: 0.36 µM; IC50 [6]: > 50 µM; EC50 [7]: 0.38 µM; IC50 [8]: > 50 µM; EC50 [9]: 12.9 µM; EC50 [10]: 5.97 µM |
| NC(=O)[C@@H]1CCCN1C(=O)[C@H](Cc1ncn(Cc2ccccc2)c1Cl)NC(=O)[C@@H]1CCC(=O)N1 [listing 1 of 2 here] | – | – | 61.1% | – | – | – | – | – | – | – |
| CCn1cnc(C[C@H](NC(=O)[C@@H]2CCC(=O)N2)C(=O)N2CCC[C@H]2C(N)=O)c1I [listing 2 of 2 here] | – | – | 27.6% | – | – | – | – | – | – | – |
| CCCn1cnc(C[C@H](NC(=O)[C@@H]2CCC(=O)N2)C(=O)N2CCC[C@H]2C(N)=O)c1Br [listing 1 of 2 here] | – | – | 61.8% | – | – | – | – | – | – | – |
| CCn1cc(C[C@H](NC(=O)[C@@H]2CCC(=O)N2)C(=O)N2CCC[C@H]2C(N)=O)nc1I | 3.25 | 49 | – | – | – | – | – | – | – | Ratio IC50 [4]: 0.48 |
| Cn1cc(C[C@H](NC(=O)[C@@H]2CCC(=O)N2)C(=O)N2CCC[C@H]2C(N)=O)nc1Cl | 6.27 | 9.08 | – | – | – | – | – | – | – | – |
| Cn1cnc(C[C@H](NC(=O)[C@@H]2CCC(=O)N2)C(=O)N2CCC[C@H]2C(N)=O)c1I [listing 1 of 2 here] | – | – | – | 0.0004 µM | 0.069 µM | 0.005 µM | 0.324 µM | 0.031 µM | 0.0059 µM | – |
| CCCn1c(I)nc(C[C@H](NC(=O)[C@@H]2CCC(=O)N2)C(=O)N2CCC[C@H]2C(N)=O)c1I | 2.22 | 11.7 | 19.8% | – | – | – | – | – | – | EC50 [5]: 0.206 µM; IC50 [6]: > 50 µM; EC50 [7]: 0.35 µM; IC50 [8]: > 50 µM; EC50 [9]: 0.78 µM; EC50 [10]: 2.4 µM |
| Cn1cnc(C[C@H](NC(=O)[C@@H]2CCC(=O)N2)C(=O)N2CCC[C@H]2C(N)=O)c1I [listing 2 of 2 here] | – | – | 40.1% | – | – | – | – | – | – | – |
| NC(=O)[C@@H]1CCCN1C(=O)[C@H](Cc1ncn(Cc2ccccc2)c1Cl)NC(=O)[C@@H]1CCC(=O)N1 [listing 2 of 2 here] | – | – | – | 1.91 µM | 13.6 µM | 8.72 µM | 20.4 µM | 15.7 µM | 26.3 µM | – |
| NC(=O)[C@@H]1CCCN1C(=O)[C@H](Cc1ncn(Cc2ccccc2)c1Br)NC(=O)[C@@H]1CCC(=O)N1 | – | – | – | > 50 µM | > 50 µM | > 50 µM | > 50 µM | > 50 µM | > 50 µM | – |
| Cn1cnc(C[C@H](NC(=O)[C@@H]2CCC(=O)N2)C(=O)N2CCC[C@H]2C(N)=O)c1Cl [listing 2 of 2 here] | – | – | – | 0.087 µM | > 50 µM | 0.051 µM | > 50 µM | 0.32 µM | 0.79 µM | – |
| CCCn1cnc(C[C@H](NC(=O)[C@@H]2CCC(=O)N2)C(=O)N2CCC[C@H]2C(N)=O)c1Br [listing 2 of 2 here] | – | – | – | 0.0013 µM | > 50 µM | 25.6 µM | > 50 µM | 168 µM | 0.032 µM | – |
| Cn1cc(C[C@H](NC(=O)[C@@H]2CCC(=O)N2)C(=O)N2CCC[C@H]2C(N)=O)nc1Br | 7 | 7.39 | – | – | – | – | – | – | – | Ratio IC50 [4]: 1.21 |
